The target in one data set is T1, recombinant HPK1 protein (Homo sapiens, UniProt Q92918).
T1 construct: purchased Promega V6398
T1 sequence (Q92918 1-346 limits assumed): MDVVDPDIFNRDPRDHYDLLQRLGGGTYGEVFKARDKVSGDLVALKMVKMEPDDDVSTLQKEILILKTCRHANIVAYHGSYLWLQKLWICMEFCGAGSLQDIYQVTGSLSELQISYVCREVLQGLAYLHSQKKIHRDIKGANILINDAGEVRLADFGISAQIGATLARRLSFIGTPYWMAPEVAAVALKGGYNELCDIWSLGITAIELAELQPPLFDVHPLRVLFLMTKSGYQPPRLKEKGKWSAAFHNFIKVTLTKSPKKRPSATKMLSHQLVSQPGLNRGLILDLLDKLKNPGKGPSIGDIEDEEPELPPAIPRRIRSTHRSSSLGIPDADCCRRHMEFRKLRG
As to the kind of experiment: Primary assay of HPK1 enzymatic activity inhibition (ADP-Glo luminescence). To be noted: recombinant HPK1, MBP substrate, 1 hour at room temperature. It counts as biochemical.

Another data set relates to Jurkat cells. The data set is described as follows: IL-2 release Jurkat assay (anti-CD3/anti-CD28 stimulation, IL-2 ELISA). It counts as cell-based, human. The following applies: activation with 400 ng/mL aCD3 + 400 ng/mL aCD28, 24 hours.
Data set [1] is described as follows: Pharmacokinetic (PK) study in mice. It counts as in vivo. The following applies: mouse, plasma; male CD-1 mice, PO 10 mg/kg, vehicle 80% PEG400, 10% TPGS and 10% ethanol, solution; vs IV 2 mg/kg; read-out: Fabs, % (percent bioavailability).

We go through 3 compounds from patent US20240270699A1, “COMPOUNDS HAVING N-ARYLPYRIMIDIN-2-AMINE DERIVATIVES AS THERAPEUTIC AGENTS” (Lomond Therapeutics, Inc., priority 2021, published 2024).

pIC50: −log10 of the molar value.

As usually defined, the pIC50 is the negative decadic logarithm of the IC50, by convention in mol/L. As usually defined, the bioavailability is dose-corrected exposure relative to a reference, in per cent.

As to `Cc1noc(-c2cnc(Nc3ccc4c(c3)CCNC4=O)nc2N[C@H](CO)c2ccccc2)n1` [Compound 558, 6-[[4-[[(1S)-2-hydroxy-1-phenyl-ethyl]amino]-5-(3-methyl-1,2,4-oxadiazol-5-yl)pyrimidin-2-yl]amino]-3,4-dihydro-2H-isoquinolin-1-one], on recombinant HPK1 protein, the pIC50 was over 7.30. Also, in the data set with Jurkat cells (Table D: Jurkat, 6 μM of tested compounds, stimulated vehicle = B), the “IL-2, pg/mL stimulated” value is given as “D (150 pg/mL≤IL-2)”. Besides, in data set [1], the bioavailability is 16.3%.
`Cc1noc(-c2cnc(Nc3ccc4c(c3)CCC(=O)N4)nc2N[C@H](CO)c2ccccc2)n1` [Compound 86, 6-[[4-[[(1S)-2-hydroxy-1-phenyl-ethyl]amino]-5-(3-methyl-1,2,4-oxadiazol-5-yl)pyrimidin-2-yl]amino]-3,4-dihydro-1H-quinolin-2-one]: the pIC50 on recombinant HPK1 protein is over 7.30. Moreover, in the data set with Jurkat cells (Table B: Jurkat, 1.5 μM of tested compounds), the “IL-2, pg/mL stimulated” value is “C (25.0 pg/mL≤IL-2<35.0 pg/mL)”. Also, the bioavailability in data set [1] turned out to be 83.6%.
As to `Cc1noc(-c2cnc(Nc3ccc(S(C)(=O)=O)c(C)c3)nc2N[C@H](CO)c2ccccc2)n1` [Compound 252, (2S)-2-{[2-{[3-methyl-4-(methylsulfonyl)phenyl]amino}-5-(3-methyl-1,2,4-oxadiazol-5-yl)pyrimidin-4-yl]amino}-2-phenylethanol], on recombinant HPK1 protein, the negative logarithm of the IC50 (pIC50) is 6.70 to 7.30. The “IL-2, pg/mL stimulated” value in the data set with Jurkat cells (Table C: Jurkat, 6 μM of tested compounds, stimulated vehicle = A) is listed as “B (50 pg/mL≤IL-2<100 pg/mL)”. For the same compound, the bioavailability in data set [1] stood at 19.9%.
